From ChEMBL document CHEMBL1201862, “PubChem BioAssay data set” (2004) come the findings set out here.

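Following 48 hours of exposure in 96-well plates, responses at five concentrations were used to interpolate endpoints linearly. At the GI50, growth is halved.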 The source made the active and inactive calls. Rule as the data show it: active = GI50 up to about 1.1 µM and inactive = higher.

Some test systems named below: SK-MEL-5; UACC-62; MDA-MB-435; COLO 205; SK-MEL-28; NCI-H226; HCT-15; HCC 2998; K562; RPMI-8226; 786-0; ACHN; LOX IMVI; OVCAR-5; KM12; Malme-3M; NCI-H23; BT-549.
Assay in all cases: inhibition of tumour cell growth, NCI panel, 48 h

With `CCCCS/C(=C(/C#N)C(N)=O)c1cc2c([nH]1)CCCC2`, the GI50 was 13.8 µM (inactive) with SK-MEL-5; 6.52 µM (inactive) in the assay on UACC-62; 3.36 µM (inactive) in the assay on MDA-MB-435; 14 µM (inactive) with COLO 205; 14 µM (inactive) with SK-MEL-28; 15.1 µM (inactive) with NCI-H226. For the same compound, the GI50 with HCT-15 is 9.71 µM; in the assay with HCC 2998 it was 11.4 µM (inactive); in the assay on K562, 3.68 µM (inactive); in the assay on RPMI-8226 it was 6.71 µM (inactive); in the assay on 786-0, 11.5 µM (inactive); in the assay on ACHN, 16.3 µM (inactive). Further, the GI50 is 8.93 µM (inactive) with LOX IMVI; 29 µM (inactive) in the assay on OVCAR-5; 5.78 µM (inactive) with KM12; 11.4 µM (inactive) in the assay on Malme-3M; 16.7 µM (inactive) in the assay with NCI-H23; 11.1 µM (inactive) in the assay on BT-549.

Turning to `Cc1cnc(Cl)nc1C(C#N)c1nc2ccccc2s1` (configuration not stated), the GI50 with SK-MEL-5 is 5.57 µM (inactive); in the assay on MDA-MB-435 it was 22.5 µM (inactive); in the assay on COLO 205 it was 14.2 µM (inactive); in the assay with SK-MEL-28, 69 µM (inactive); with NCI-H226, 14.7 µM (inactive); in the assay with HCT-15 it was 16.6 µM. For the same compound, the GI50 is 12.6 µM (inactive) in the assay on RPMI-8226; 15.7 µM (inactive) in the assay on 786-0; 18.7 µM (inactive) with ACHN; 18.8 µM (inactive) in the assay with LOX IMVI; 25.8 µM (inactive) in the assay on OVCAR-5; 33.8 µM (inactive) with KM12. In addition, the GI50 in the assay with Malme-3M was 9.31 µM (inactive); with NCI-H23, 7 µM (inactive); in the assay with BT-549 it was 12.4 µM (inactive).

Regarding `NS(=O)(=O)c1nnc(NS(=O)(=O)c2ccc([N+](=O)[O-])cc2)s1`, the GI50 in the assay on SK-MEL-5 is 69.2 µM (inactive); in the assay with UACC-62, > 100 µM (inactive); in the assay on MDA-MB-435 it was > 100 µM (inactive); in the assay on COLO 205, > 100 µM (inactive); with SK-MEL-28 it was > 100 µM (inactive); with NCI-H226, > 100 µM (inactive). Moreover, the GI50 is above 100 µM with HCT-15; > 100 µM (inactive) with HCC 2998; 33.6 µM (inactive) in the assay on K562; 21.4 µM (inactive) in the assay on RPMI-8226; 37.1 µM (inactive) in the assay with 786-0; > 100 µM (inactive) in the assay on ACHN. The GI50 is 30.4 µM (inactive) with LOX IMVI; > 100 µM (inactive) in the assay on OVCAR-5; > 100 µM (inactive) in the assay on KM12; > 100 µM (inactive) with Malme-3M; > 100 µM (inactive) in the assay on NCI-H23; > 100 µM (inactive) in the assay with BT-549.

For `COc1cc2c[n+](C)c3c4cc(OC)c(OCc5ccccc5)cc4c(OCc4ccccc4)cc3c2cc1OC`, the GI50 with SK-MEL-5 was 2.08 µM (inactive); with UACC-62, 2.6 µM (inactive); in the assay on MDA-MB-435, 1.74 µM (inactive); with COLO 205, 0.429 µM (active); with SK-MEL-28 it was 5.48 µM (inactive); in the assay with NCI-H226, 2.26 µM (inactive). Moreover, the GI50 with HCT-15 is 97.9 µM; in the assay on HCC 2998 it was 11.7 µM (inactive); in the assay on K562 it was 1.28 µM (inactive); in the assay on RPMI-8226, 25.7 µM (inactive); in the assay with 786-0, 13.2 µM (inactive); in the assay with ACHN it was > 75.2 µM (inactive). Also, the GI50 was 5.3 µM (inactive) in the assay with LOX IMVI; > 29.6 µM (inactive) with OVCAR-5; 10.5 µM (inactive) in the assay with KM12; 2.22 µM (inactive) in the assay with Malme-3M; 5.58 µM (inactive) with NCI-H23; 2.21 µM (inactive) in the assay with BT-549.

Take `O=S(=O)(c1ccccc1)N1CCCC(c2ccccc2)CC1` (configuration not stated): the GI50 in the assay on SK-MEL-5 was 14.6 µM (inactive); in the assay on UACC-62 it was > 100 µM (inactive); in the assay on MDA-MB-435 it was 82 µM (inactive); in the assay on COLO 205, 42 µM (inactive); in the assay on SK-MEL-28, > 100 µM (inactive); with NCI-H226, 52.7 µM (inactive). Also, the GI50 in the assay with HCT-15 was 46.5 µM; with HCC 2998, 23.9 µM (inactive); in the assay on K562, 19.4 µM (inactive); in the assay with RPMI-8226 it was 16.4 µM (inactive); in the assay on 786-0, 41.9 µM (inactive); in the assay on ACHN it was 29.2 µM (inactive). Moreover, the GI50 with OVCAR-5 was > 100 µM (inactive); in the assay with KM12, 41 µM (inactive); in the assay on Malme-3M, 30.8 µM (inactive); in the assay on NCI-H23 it was 27.5 µM (inactive); in the assay on BT-549, 58.3 µM (inactive).

In the case of `CC(=O)Nc1ccc(/N=C2\C(c3ccccc3)=C(SC3=C(c4ccccc4)/C(=N\c4ccc(NC(C)=O)cc4)c4ccccc43)c3ccccc32)cc1`, the GI50 is 15.8 µM (inactive) in the assay on SK-MEL-5; 26.5 µM (inactive) in the assay with MDA-MB-435; 32 µM (inactive) in the assay on COLO 205; 32.7 µM (inactive) in the assay with SK-MEL-28; 53.6 µM (inactive) with NCI-H226; 44.5 µM in the assay with HCT-15. Also, the GI50 with HCC 2998 is 26.7 µM (inactive); in the assay with K562, 32.6 µM (inactive); in the assay with RPMI-8226, 19.4 µM (inactive); with 786-0, 37.3 µM (inactive); in the assay on ACHN, 31.8 µM (inactive); in the assay with LOX IMVI, 28.8 µM (inactive). In addition, the GI50 with OVCAR-5 is 51.5 µM (inactive); in the assay with KM12 it was 27 µM (inactive); with Malme-3M, 27.2 µM (inactive); in the assay with NCI-H23, 31.3 µM (inactive); in the assay with BT-549 it was 24.8 µM (inactive).

On to `C=C1c2nc3ccccc3n2C=C(c2ccccc2)N1c1ccc(C)cc1`, for which the GI50 with SK-MEL-5 was 25.7 µM (inactive); in the assay on UACC-62 it was 64.4 µM (inactive); in the assay on MDA-MB-435 it was 33.2 µM (inactive); in the assay with COLO 205, 73.5 µM (inactive); in the assay with NCI-H226, 68.7 µM (inactive); with HCT-15, 35.4 µM. In addition, the GI50 was 9.31 µM (inactive) in the assay with HCC 2998; 31.5 µM (inactive) in the assay with K562; 19.5 µM (inactive) in the assay on RPMI-8226; 45.3 µM (inactive) in the assay with 786-0; 53.5 µM (inactive) in the assay on ACHN; 33.6 µM (inactive) in the assay with LOX IMVI. In addition, the GI50 was > 100 µM (inactive) in the assay on OVCAR-5; 22.7 µM (inactive) in the assay with KM12; > 100 µM (inactive) in the assay with Malme-3M; 58.6 µM (inactive) in the assay with NCI-H23; 49.9 µM (inactive) in the assay on BT-549.

Regarding `COc1ccc(C(CCC(C)=O)C(=O)O)cc1OC` (configuration not stated), the GI50 was > 100 µM (inactive) with SK-MEL-5; > 100 µM (inactive) with UACC-62; > 100 µM (inactive) with COLO 205; > 100 µM (inactive) in the assay with SK-MEL-28; above 100 µM with HCT-15; > 100 µM (inactive) in the assay on K562. The GI50 with RPMI-8226, in the assay on 786-0, with ACHN, with LOX IMVI, with OVCAR-5 and with KM12 was > 100 µM (inactive) in each case. Besides, the GI50 in the assay on Malme-3M and with NCI-H23 was > 100 µM (inactive) each time.

Consider `CCOC(=O)c1ccc(/N=N/N(C)C(=O)C(C)N)cc1` (configuration not stated), for which the GI50 is > 100 µM (inactive) with SK-MEL-5; > 100 µM (inactive) in the assay with UACC-62; 56.8 µM (inactive) in the assay on MDA-MB-435; > 100 µM (inactive) in the assay with COLO 205; > 100 µM (inactive) with SK-MEL-28; > 100 µM (inactive) in the assay with NCI-H226. Moreover, the GI50 is above 100 µM in the assay on HCT-15; > 100 µM (inactive) in the assay on HCC 2998; > 100 µM (inactive) in the assay with K562; > 100 µM (inactive) in the assay on RPMI-8226; > 100 µM (inactive) in the assay with 786-0; 49.5 µM (inactive) in the assay on ACHN. The GI50 in the assay with LOX IMVI was > 100 µM (inactive); with OVCAR-5, > 100 µM (inactive); in the assay on KM12 it was > 100 µM (inactive); in the assay on Malme-3M, > 100 µM (inactive); with NCI-H23, > 100 µM (inactive); in the assay with BT-549 it was 98.6 µM (inactive).
